Laboratory results from patent US5484771A, “Antiherpes peptide derivatives having a 1,4-dioxo-C, N-terminus” (priority 1994, dated 1996).
Where “and” joins values, the source holds several entries; their conditions need not be identical. Equal values may be shown once. Numbered stars: 1 amine (or outer) side, 2 acyl side, 3 side chain; on linkers, the order of the positions; unused ones are H or OH. Peptide text beside a SMILES is read from it. * marks the point of attachment. Suc = O=C(CCC(=O)[*:2])[*:1]; Pyrrolidide = C1CCN(*)C1; NHiPr = CC(C)N*

Biological target: T1, HSV-1 ribonucleotide reductase (Human herpesvirus 1, UniProt P08543)
T1 construct: HSV-1 ribonucleotide reductase (partially purified) was obtained from quiescent BHK-21/C13 cells infected with strain F HSV-1 virus; made in house; host or cells: quiescent BHK-21/C13 cells infected with HSV-1 strain F (10 pfu/cell); partially purified
Test: biochemical
Settings: IC50, concentration producing 50% of the maximal inhibition of enzyme activity; partially purified enzyme; mean of four assays
Description: HSV-1 ribonucleotide reductase (partially purified) was obtained from quiescent BHK-21/C13 cells infected with strain F HSV-1 virus at 10 plaque forming units/cell as described by E. A. Cohen et at., J. Gem Virol., 66, 733 (1985).
By following the procedure described by P. Gaudreau et at., J. Biol, Chem., 262, 12413 (1987), the assay results listed in the following table were obtained. The assay result for each exemplified compound of formula 1 is expressed as the concentration of the compound producing 50% of the maximal inhibition (IC50) of enzyme activity. The number of units of the enzyme preparation used in each assay was constant, based on the specific activity of the enzyme preparation. The results are relative to the activity obtained in control experiments without the test compound and represent the mean of four assays that varied less than 10% with each other.

T1 sequence (P08543 whole entry): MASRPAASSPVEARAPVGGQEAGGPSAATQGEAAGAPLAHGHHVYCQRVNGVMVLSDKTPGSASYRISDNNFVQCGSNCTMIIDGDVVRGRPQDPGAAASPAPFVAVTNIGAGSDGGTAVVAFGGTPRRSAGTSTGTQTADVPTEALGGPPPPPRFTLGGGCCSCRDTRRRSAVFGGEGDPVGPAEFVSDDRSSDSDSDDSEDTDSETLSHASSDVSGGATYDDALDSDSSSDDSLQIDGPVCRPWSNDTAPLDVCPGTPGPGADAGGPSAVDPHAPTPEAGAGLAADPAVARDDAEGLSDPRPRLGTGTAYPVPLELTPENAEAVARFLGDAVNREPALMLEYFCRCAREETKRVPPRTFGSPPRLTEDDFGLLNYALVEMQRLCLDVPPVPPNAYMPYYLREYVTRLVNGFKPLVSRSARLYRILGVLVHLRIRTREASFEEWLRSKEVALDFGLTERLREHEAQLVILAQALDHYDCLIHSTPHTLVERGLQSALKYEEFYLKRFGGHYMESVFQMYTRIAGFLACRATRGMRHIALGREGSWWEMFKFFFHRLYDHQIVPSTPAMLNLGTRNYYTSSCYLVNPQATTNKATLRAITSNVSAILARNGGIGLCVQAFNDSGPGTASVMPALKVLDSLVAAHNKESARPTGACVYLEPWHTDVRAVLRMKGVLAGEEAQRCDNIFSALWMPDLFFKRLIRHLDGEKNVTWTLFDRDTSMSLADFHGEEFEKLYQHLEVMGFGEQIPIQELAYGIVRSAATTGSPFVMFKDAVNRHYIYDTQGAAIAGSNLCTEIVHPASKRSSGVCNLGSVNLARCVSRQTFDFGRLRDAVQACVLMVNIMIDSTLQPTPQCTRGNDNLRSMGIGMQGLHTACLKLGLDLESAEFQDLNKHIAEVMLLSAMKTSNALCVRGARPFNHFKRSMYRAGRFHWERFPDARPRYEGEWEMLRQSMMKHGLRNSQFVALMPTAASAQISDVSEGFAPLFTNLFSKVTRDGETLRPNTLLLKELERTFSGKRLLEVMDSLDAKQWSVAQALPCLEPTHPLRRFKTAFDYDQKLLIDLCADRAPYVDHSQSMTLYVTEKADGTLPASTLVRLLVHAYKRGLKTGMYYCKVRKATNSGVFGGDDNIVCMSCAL

Row | Structure (SMILES) | IC50
1 | CC(C)C[C@H](NC(=O)[C@H](CC(=O)O)NC(=O)[C@H](CC(=O)N1CCCC1)NC(=O)CCC(=O)NC1CCCCC1)C(=O)O [Cyclohexylamino-COCH2 CH2 CO-Asp(pyrrolidino)-Asp-Leu-OH] | 22 µM
2 | CCC(CC)NC(=O)c1ccccc1C(=O)N[C@@H](CC(=O)N1CCCC1)C(=O)N[C@@H](CC(=O)O)C(=O)N[C@@H](CC(C)C)C(=O)O [Et2 CHNHCO-(1,2-phenylene)-CO-Asp(pyrrolidino)-Asp-Leu-OH] | 6.5 µM
3 | CCC(CC)NC(=O)C1CCCCC1C(=O)N[C@@H](CC(=O)N1CCCC1)C(=O)N[C@@H](CC(=O)O)C(=O)N[C@@H](CC(C)C)C(=O)O (stereo partly drawn) [Et2 CHNHCO-(cis-1,2-cyclohexanediyl)-CO-Asp(pyrrolidino)-Asp-Leu-OH] | 3.7 µM and 2.21 µM
4 | CCC(CC)NC(=O)/C=C\C(=O)N[C@@H](CC(=O)N1CCCC1)C(=O)N[C@@H](CC(=O)O)C(=O)N[C@@H](CC(C)C)C(=O)O [Et2 CHNHCO-(cis-CH=CH)-CO-Asp(pyrrolidino)-Asp-Leu-OH] | 21 µM
5 | CCC(CC)NC(=O)CCC(=O)N(C)[C@@H](CC(=O)N1CCCC1)C(=O)N[C@@H](CC(=O)O)C(=O)N[C@@H](CC(C)C)C(=O)O [Et2 CHNHCOCH2 CH2 CO-(N-Me)-Asp(pyrrolidino)-Asp-Leu-OH] | 2 µM
6 | CCC(CC)NC(=O)CCC(=O)N[C@@H](CC(=O)N1CCC(C)CC(C)(C)C1)C(=O)N[C@@H](CC(=O)O)C(=O)N[C@@H](CC(C)C)C(=O)O (stereo partly drawn) [Et2 CHNHCOCH2 CH2 CO-Asp(3,3,5-trimethylhexahydroazepino)-Asp-Leu-OH] | 12 µM
7 | CCC(CC)NC(=O)CCC(=O)N[C@@H](CC(=O)OCCCCCl)C(=O)N[C@@H](CC(=O)O)C(=O)N[C@@H](CC(C)C)C(=O)O [Et2 CHNHCOCH2 CH2 CO-Asp(4-chloro-butyloxy)-Asp-Leu-OH] | 20 µM
8 | CCCCCCCCN(C)C(=O)C[C@H](NC(=O)CCC(=O)NC(CC)CC)C(=O)N[C@H](C(=O)N[C@@H](CC(C)C)C(=O)O)C1(C(=O)O)CCCC1 [Et2 CHNHCOCH2 CH2 CO-Asp(N-Me-N-octyl)-Asp(cyPn)-Leu-OH] | 0.73 µM
9 | CCC(CC)NC(=O)CCC(=O)N[C@@H](CC(=O)N1CCC1)C(=O)N[C@@H](CC(=O)O)C(=O)N[C@@H](CC(C)C)C(=O)O [Et2 CHNHCOCH2 CH2 CO-Asp(azetidino)-Asp-Leu-OH] | 9.1 µM
10 | CCC(CC)NC(=O)CCC(=O)N[C@@H](CC(=O)OC1CCCCC1)C(=O)N[C@@H](CC(=O)O)C(=O)N[C@@H](CC(C)C)C(=O)O [Et2 CHNHCOCH2 CH2 CO-Asp(cyclohexyloxy)-Asp-Leu-OH] | 75 µM
11 | CCC(CC)NC(=O)CCC(=O)N[C@@H](CC(=O)N1CCCC1)C(=O)N[C@H](C(=O)NCCC(C)(C)C)C(C)(C)C(=O)O [Et2 CHNHCOCH2 CH2 CO-Asp(pyrrolidino)-Asp(diMe)-NH[CH2 CH2 C(CH3)3 ]] | 75 µM
12 | CCCCCC[C@H](C)OC(=O)C[C@H](NC(=O)CCC(=O)NC(CC)CC)C(=O)N[C@H](C(=O)N[C@@H](CC(C)C)C(=O)O)C1(C(=O)O)CCC1 [Et2 CHNHCOCH2 CH2 CO-Asp[1(S)-methylheptyloxy]-Asp(cyBu)-Leu-OH] | 4.4 µM
13 | CCC(CC)NC(=O)CCC(=O)N[C@@H](CC(=O)N(C)CCO)C(=O)N[C@@H](CC(=O)O)C(=O)N[C@@H](CC(C)C)C(=O)O [Et2 CHNHCOCH2 CH2 CO-Asp[N(CH3)CH2-CH2 OH]-Asp-Leu-OH] | 11 µM
14 | CCC(CC)NC(=O)CCC(=O)N[C@@H](CC(=O)C1CCCC1)C(=O)N[C@@H](CC(=O)O)C(=O)N[C@@H](CC(C)C)C(=O)O [Et2 CHNHCOCH2 CH2 CO-NHCH-(2-cyclopentyl-2-oxoethyl)-CO-Asp-Leu-OH] | 3.4 µM
15 | CCCCCCCC(=O)C[C@H](NC(=O)CCC(=O)NC(CC)CC)C(=O)N[C@@H](CC(=O)O)C(=O)N[C@@H](CC(C)C)C(=O)O [Et2 CHNHCOCH2 CH2 CO-NHCH-(2-oxononyl)-CO-Asp-Leu-OH] | 9 µM
16 | CCC(CC)NC(=O)CCC(=O)N[C@@H](CC(=O)N1CCCC1)C(=O)N[C@H](C(=O)N[C@H](CO)CC(C)C)C1(C(=O)O)CCC1 [Et2 CHNHCOCH2 CH2,CO-Asp(pyrrolidino)-Asp(cyBu)-(L-leucinol)] | 5 µM
17 | CCC(CC)NC(=O)CCC(=O)N[C@@H](CC(=O)N(C)CCOC(C)=O)C(=O)N[C@@H](CC(=O)O)C(=O)N[C@@H](CC(C)C)C(=O)O [Et2 CHNHCOCH2 CH 2 CO-Asp[N(CH3)CH2-CH2 OCOCH3 ]-Asp-Leu-OH] | 9.9 µM
18 | CC(C)CNC(=O)CCC(=O)N[C@@H](CC(=O)N1CCCC1)C(=O)N[C@@H](CC(=O)O)C(=O)N[C@@H](CC(C)C)C(=O)O [Me2 CHCH2 NHCOCH2 CH2 CO-Asp(pyrrolidino)-Asp-Leu-OH] | 75 µM
19 | CC(C)C[C@H](NC(=O)[C@H](CC(=O)O)NC(=O)[C@H](CC(=O)N1CCCC1)NC(=O)CCC(=O)NC(C)C)C(=O)O [Me2 CHNHCOCH2 CH2 CO-Asp(pyrrolidino)-Asp-Leu-OH] ({NHiPr-Suc}-Asp(Pyrrolidide)-Asp-Leu-OH) | 18 µM
20 | CCC(CC)NC(=O)CCC(=O)N[C@@H](CC(=O)N1CCCC1)C(=O)N[C@@H](CC(=O)O)C(=O)N[C@@H](CC(C)C)C(=O)O [Title Compound of Example 10, Et2 CHNHCOCH2 CH2 CO--Asp(pyrrolidiono)--Asp-Leu--OH] | 2.9 µM
21 | CCC(CC)NC(=O)C[C@H](C(=O)N[C@@H](CC(=O)N1CCCC1)C(=O)N[C@H](C(=O)N[C@@H](CC(C)(C)C)C(=O)O)C1(C(=O)O)CCCC1)C(C)(C)C [Title Compound of Example 11, Et2 CHNH--COCH2 CH[(S)-C(CH3)3]CO--Asp(pyrrolidino)--Asp(cyPn)-γMeLeu--OH] | 0.17 µM
